From BindingDB's records for patent US20240425453 (Neophore, 2024)

Target: T1, Mismatch repair endonuclease PMS2 (UniProt P54278)
T1 sequence (P54278 whole entry): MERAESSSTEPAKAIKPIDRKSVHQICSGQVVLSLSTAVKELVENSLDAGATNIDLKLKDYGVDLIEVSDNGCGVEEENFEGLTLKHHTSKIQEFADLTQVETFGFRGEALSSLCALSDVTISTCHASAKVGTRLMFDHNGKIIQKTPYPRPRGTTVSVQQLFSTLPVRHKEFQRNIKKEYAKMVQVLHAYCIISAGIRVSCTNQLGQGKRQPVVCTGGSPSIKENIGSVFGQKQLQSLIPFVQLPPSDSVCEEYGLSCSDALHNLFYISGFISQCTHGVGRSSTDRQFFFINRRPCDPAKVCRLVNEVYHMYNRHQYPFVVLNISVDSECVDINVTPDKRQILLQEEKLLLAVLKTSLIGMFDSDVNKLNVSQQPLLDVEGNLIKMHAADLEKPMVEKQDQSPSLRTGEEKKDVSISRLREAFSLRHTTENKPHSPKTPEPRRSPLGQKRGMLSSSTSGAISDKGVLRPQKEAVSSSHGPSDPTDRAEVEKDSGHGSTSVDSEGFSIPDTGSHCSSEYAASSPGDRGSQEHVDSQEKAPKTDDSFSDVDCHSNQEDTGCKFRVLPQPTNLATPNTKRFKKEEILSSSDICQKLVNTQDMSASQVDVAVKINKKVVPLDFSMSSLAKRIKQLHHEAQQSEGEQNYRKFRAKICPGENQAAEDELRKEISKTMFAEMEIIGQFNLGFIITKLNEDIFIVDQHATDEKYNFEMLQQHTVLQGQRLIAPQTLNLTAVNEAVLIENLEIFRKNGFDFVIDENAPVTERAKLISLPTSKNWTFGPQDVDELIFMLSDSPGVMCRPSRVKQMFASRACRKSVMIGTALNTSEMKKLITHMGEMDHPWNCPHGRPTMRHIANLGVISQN
Experiment: Fluorescence Polarization Assay for PMS2

Question: How did the IC50 turn out when `C=C(CN(C)C)C(=O)Nc1cccc2c1CN(C(=O)c1c(O)cc(O)c(C)c1OC)C2` [US20240425453, Example 36] was run?
Answer: > 1 µM
